Test results from a melting point compilation (Tetko et al.; mined from patent text by program, amines drawn as free bases though some values may be those of a salt).

With CC(C)(Cc1ccc(F)cc1)NC(=O)Nc1ccccc1CCc1cc(C(C)(C)C)c(O)c(C(C)(C)C)c1 the melting point was 151 °C.
C#C/C(=C\c1cccnc1)c1c[nH]c2ccc(OC)cc12 showed a melting point of 136 °C.
With Cn1nc(-c2c(F)cccc2Cl)nc1-c1ccc(CO)c(Cl)c1 the melting point was 111 to 113 °C.
In the case of O=CN1CCN(c2c(F)c(F)c3c(=O)c(C(=O)O)cn(C4CC4)c3c2F)CC1, the melting point is reported as 290 to 297 °C.
CCNC(=O)Nc1ccc(-c2ccc3nnn(Cc4ccc5ncccc5c4)c3n2)cc1 showed a melting point of 193 to 196 °C.
In the case of CCc1ccc(CCOc2ccc([N+](=O)[O-])cc2)nc1, the melting point is reported as 53 to 54 °C.
Work on ClCc1cn2c(n1)CN=C(c1ccccn1)c1cc(Cl)ccc1-2 yielded a melting point of 161 °C.
COc1ccc(F)cc1C(C)(C)CC(O)(CN1CCSc2ccccc21)C(F)(F)F (stereo not given) gave a melting point of 103 to 104 °C.
CN(CCO)Cc1cc(C(=O)c2cccs2)cc(C(C)(C)C)c1O gave a melting point of 98 to 100 °C.
In the case of O=C1CCc2cccc3c2N1C(=O)C3, the melting point is reported as 194 to 197 °C.
Cc1cscc1NC(=S)Nc1cc(Cl)c(Cl)cc1N gave a melting point of 310 to 320 °C.
Compound C=CCN1C(=O)NC(C)=C(C(=O)OC(C)C)C1c1cccc([N+](=O)[O-])c1 (stereo not given) has a melting point of 172 to 174 °C.
O=c1cc(N2CCOCC2)oc2c(-c3cccc(O)c3)cccc12 showed a melting point of 203 to 205 °C.
For O=C1NC(=O)C2(CCCCC2)N1c1cccnc1, the melting point was 264 to 266 °C.
Compound O=c1c2c(CCc3ccc([N+](=O)[O-])cc3)n[nH]c2c2cccnc2n1-c1ccccc1 has a melting point of 260 to 262 °C.
With O=C1N(CCN2CCC(c3noc4cc(F)ccc34)CC2)CCN1c1ccccc1 the melting point was 158 to 160 °C.
Work on O=[N+]([O-])c1ccc(F)c(-c2ccc3ncccc3c2)c1F yielded a melting point of 152 to 153 °C.
CCSc1c(O)ccc2[nH]ncc12 gave a melting point of 116 °C.
COC(=O)[C@H](CCCCNC(=O)OCc1ccccc1)n1c2ccccc2c2ccccc21 gave a melting point of 97 to 99 °C.
For CNC(=C[N+](=O)[O-])NCCCCc1nc[nH]c1Br, the melting point was 145 to 148 °C.
In the case of Nc1ccccc1SCc1ncon1, the melting point is reported as 57 °C.
Work on COC(=O)C=CCC1C(=O)N2C(C(=O)OCc3ccc([N+](=O)[O-])cc3)=CCC12 (stereo not given) yielded a melting point of 109 to 111 °C.
With COc1cccc(-c2cn(-c3ccc(C(=O)O)cc3)nn2)c1 the melting point was 276 to 277 °C.
CCC(C)n1c(=O)nc(SC)[nH]c1=O (stereo not given) gave a melting point of 134 to 136 °C.
In the case of O=C1C(=O)c2ccccc2C2=C1SCC1(CCN(C(=O)c3cccc(Cl)c3)CC1)O2, the melting point is reported as 155 to 158 °C.
CS(=O)(=O)c1ccc(-c2nn(Cc3ccc(Cl)cc3Cl)c(=O)cc2-c2ccc(Cl)cc2)cc1 gave a melting point of 233 to 234 °C.
With NC(=O)CNC(=O)c1cccc(-c2ccc3c(n2)N(Cc2ccc(Cl)cc2Cl)CC3)c1 the melting point was 183 to 184 °C.
O=C1CC2(SCCS2)C(=O)N1 gave a melting point of 112 to 115 °C.
In the case of Cc1cccc(N2C(=S)SCC2O)n1 (stereo not given), the melting point is reported as 128 °C.
Compound CCCc1c(C(=O)O)cnc(C(F)(F)F)c1C(=O)O has a melting point of 236 °C.
CNc1nc(-c2ccc(SC)cc2)n(-c2ccc(C)c(C)c2)c(=O)c1C#N showed a melting point of 199 to 205 °C.
Work on O=S1(=O)c2cccc3cccc(c23)N1CCCN1CCN(c2ccccn2)CC1 yielded a melting point of 101 °C.
CCOC(=O)C1CC(O)CN1C(=O)c1ccc(OC)c(OC)c1 (stereo not given) showed a melting point of 128 °C.
In the case of CCSc1cc(O)nc(N(C)C)n1, the melting point is reported as 184 to 185 °C.
CCOC(=O)c1ccccc1Sc1ccn(C(=O)N(CC)CC)n1 showed a melting point of 65 to 67 °C.
CCC(CC)C(c1ccnn1-c1ccccc1)N(C)S(=O)(=O)c1ccc(Cl)cc1 (stereo not given) showed a melting point of 86.5 to 89 °C.
CCN(CC)C(C)CN1c2cc(Cl)ccc2S[C@H]2[C@@H](O)[C@H](O)[C@@H](CO)O[C@H]21 (stereo not given in full) gave a melting point of 185 to 188 °C.
Work on O=[N+]([O-])c1ccccc1S(=O)(=O)c1ccc(Cl)cc1 yielded a melting point of 136 to 138 °C.
CC(C)Cn1c(C(=O)O)c(-c2ccc(Cl)cc2)c2cc(OCc3ccccc3)ccc2c1=O showed a melting point of 200 to 201 °C.
Compound CC=Cc1cnn(-c2c(Cl)cc(C(F)(F)F)cc2Cl)n1 has a melting point of 35 °C.
